Results reported in PubChem BioAssay AID194 (DTP/NCI, 2004).
Results filed as inconclusive are left out.

System: BDF1 mice, B16 melanoma s.c., survival/tumor T/C
Test: NCI In Vivo Anticancer Drug Screen. Data for tumor model B16 Melanoma (subcutaneous) in B6D2F1 (BDF1) mice
Conditions: endpoint: median survival time, higher = longer survival
Method: The antitumor activity of compounds was measured in mice bearing transplantable tumors. Survival or tumor size were measured and the results are expressed as the measurement made in the treated group (T) divided by the measurement made in the vehicle treated control group (C). The tumor model used in this assay is B16 Melanoma (subcutaneous) in B6D2F1 (BDF1) mice

COc1cc([C@@H]2c3cc4c(cc3[C@@H](OC3OC5COC(C)OC5C(O)C3O)[C@H]3COC(=O)[C@H]23)OCO4)cc(OC)c1O (stereo partly specified)
T/C (dose: 2.0 mg/kg/injection, schedule: Q01DX009 (ip), vehicle: saline): 169 % of control | T/C (dose: 3.0 mg/kg/injection, schedule: Q01DX009 (ip), vehicle: saline): 117 % of control | T/C (dose: 34.0 mg/kg/injection, schedule: Q01DX001 (ip), vehicle: saline): 117 % of control | T/C (dose: 40.0 mg/kg/injection, schedule: Q04DX003 (ip), vehicle: saline): 156 % of control | T/C (dose: 50.0 mg/kg/injection, schedule: Q01DX001 (ip), vehicle: saline): 117 % of control

c1ccc([As+](c2ccccc2)(c2ccccc2)c2ccccc2)cc1
T/C (dose: 1.87 mg/kg/injection, schedule: Q01DX009 (ip), vehicle: Klucel (hydroxypropylcellulose) (HPC)): 95 % of control | T/C (dose: 3.75 mg/kg/injection, schedule: Q01DX009 (ip), vehicle: Klucel (hydroxypropylcellulose) (HPC)): 109 % of control

N[C@H](C(=O)O)[C@H]1ON=C(Cl)[C@@H]1O
T/C (dose: 8.0 mg/kg/injection, schedule: Q01DX009 (ip), vehicle: saline): 113 % of control | T/C (dose: 16.0 mg/kg/injection, schedule: Q01DX009 (ip), vehicle: saline): 114 % of control | T/C (dose: 32.0 mg/kg/injection, schedule: Q01DX009 (ip), vehicle: saline): 108 % of control | T/C (dose: 128.0 mg/kg/injection, schedule: Q01DX009 (ip), vehicle: saline): 114 % of control | T/C (dose: 256.0 mg/kg/injection, schedule: Q01DX009 (ip), vehicle: saline): 114 % of control | T/C (dose: 500.0 mg/kg/injection, schedule: Q01DX009 (ip), vehicle: saline with Tween-80): 117 % of control

O=NN(CCCl)C(=O)NC1[C@H](O)CCC[C@@H]1O (stereo partly specified)
T/C (dose: 1.56 mg/kg/injection, schedule: Q01DX007 (ip), vehicle: water): 95 % of control | T/C (dose: 2.59 mg/kg/injection, schedule: Q01DX007 (ip), vehicle: water): 108 % of control | T/C (dose: 4.32 mg/kg/injection, schedule: Q01DX007 (ip), vehicle: water): 114 % of control

Nc1nc(=S)c2[nH]cnc2[nH]1
T/C (dose: 48.0 mg/kg/injection, schedule: Q01DX001 (ip), vehicle: alkali diluted with saline): 102 % of control

CC1OC(=O)C(C(C)C)NC(=O)C(C(C)C)OC(=O)C(C(C)C)NC(=O)C(C)OC(=O)C(C(C)C)NC(=O)C(C(C)C)OC(=O)C(C(C)C)NC(=O)C(C)OC(=O)C(C(C)C)NC(=O)C(C(C)C)OC(=O)C(C(C)C)NC1=O (stereo unspecified)
T/C (dose: 3.4 mg/kg/injection, schedule: Q01DX009 (ip), vehicle: saline with Tween-80): 86 % of control | T/C (dose: 5.0 mg/kg/injection, schedule: Q01DX009 (ip), vehicle: saline with Tween-80): 86 % of control | T/C (dose: 7.5 mg/kg/injection, schedule: Q01DX009 (ip), vehicle: saline with Tween-80): 91 % of control | T/C (dose: 15.0 mg/kg/injection, schedule: Q04DX003 (ip), vehicle: saline with Tween-80): 86 % of control | T/C (dose: 20.0 mg/kg/injection, schedule: Q04DX003 (ip), vehicle: saline with Tween-80): 90 % of control | T/C (dose: 30.0 mg/kg/injection, schedule: Q01DX001 (ip), vehicle: saline with Tween-80): 86 % of control | T/C (dose: 30.0 mg/kg/injection, schedule: Q04DX003 (ip), vehicle: saline with Tween-80): 91 % of control | T/C (dose: 45.0 mg/kg/injection, schedule: Q01DX001 (ip), vehicle: saline with Tween-80): 97 % of control

CCC1(O)CC2CN(CCc3c([nH]c4ccccc34)C(C(=O)OC)(c3cc4c(cc3OC)N(C)C3C(O)(C(N)=O)C(O)C5(CC)C=CCN6CCC43C65)C2)C1 (stereo unspecified) (tested in a mixture with another compound)
T/C (dose: 1.8 mg/kg/injection, schedule: Q04DX003 (ip), vehicle: water): 87 % of control

OCC1SC(O)C(O)C(O)C1O (stereo unspecified)
T/C (dose: 500.0 mg/kg/injection, schedule: Q02HX003 (ip), vehicle: saline): 104 % of control | T/C (dose: 500.0 mg/kg/injection, schedule: Q02HX003 (ip), vehicle: water): 103 % of control | T/C (dose: 1000.0 mg/kg/injection, schedule: Q02HX003 (ip), vehicle: saline): 89 % of control | T/C (dose: 1000.0 mg/kg/injection, schedule: Q02HX003 (ip), vehicle: water): 95 % of control | T/C (dose: 1500.0 mg/kg/injection, schedule: Q01DX001 (ip), vehicle: saline): 100 % of control | T/C (dose: 1500.0 mg/kg/injection, schedule: Q01DX001 (ip), vehicle: water): 99 % of control | T/C (dose: 3000.0 mg/kg/injection, schedule: Q01DX001 (ip), vehicle: saline): 91 % of control | T/C (dose: 3000.0 mg/kg/injection, schedule: Q01DX001 (ip), vehicle: water): 92 % of control

CCN1/C(=C/C=C/C=C/c2sc3ccccc3[n+]2CC)Sc2ccccc21
T/C (dose: 63.0 micrograms/kg/injection, schedule: Q01DX009 (ip), vehicle: saline): 117 % of control | T/C (dose: 125.0 micrograms/kg/injection, schedule: Q01DX009 (ip), vehicle: saline): 120 % of control
